In US20240018166A1, “SULFONYL UREA NLRP3 INFLAMMASOME INHIBITORS” (Venatorx Pharmaceuticals, Inc., priority 2020, published 2024):

Experiments:
Type in all cases: cell-based
IL-1β = IL-1β inhibition assay (ELISA/HTRF of culture supernatants); conditions: Homo sapiens, PMA-differentiated THP-1 cells, tested 10 μM to 0.003 μM
Description: Human monocyte-like THP-1 cells were grown in RPMI media supplemented with 10% FBS (growth media) at 37° C., 5% CO2. Cell cultures were passaged every three days and maintained at a density of 5×10^5 to 1×10^6 cells per mL.
Compounds were prepared as 10 mM stock solutions in 100% DMSO. […] Each 200× dilution was then diluted 20-fold in growth media (step down dilution) to yield a 10× final assay concentration range. All compounds were tested over a final assay concentration range of 10 μM to 0.003 μM.
The level of IL-10 in supernatants from PMA-differentiated THP-1 cells was determined by ELISA using either the R&D Systems Human IL-1 beta/IL-1F2 Quantikine ELISA or the cisbio HTRF human IL 1 beta kit. Manufacturer's protocols were followed without deviation.
Background values were subtracted and resulting values were converted to percentage of vehicle-treated controls. Data was analyzed via GraphPad Prism 7.0 using a non-linear regression (variable slope (four-parameter)) equation.
Table 2 provides IL-10 ELISA EC50 values for example compounds. A indicates EC50>10 μM; B indicates EC50 between 1 and 10 μM (inclusive); C indicates EC50<1 μM.

[1] = MTT cell viability assay, THP-1 cells; conditions: human, unstimulated THP-1 cells, read-out: THP-1 Cytotoxicity CC50
Description: (§1) In order to assess the cytotoxicity of the compounds, an MTT cell viability assay was performed in either unstimulated THP-1 or HepG2 cells as follows. 5×10^4 THP-1 or 5×10^3 HepG2 cells were seeded into each well of a 96-well plate in 90 μL of media. Compounds were added to cells as described for the IL-10 assay and returned to the incubator for an additional 72 hours. Next, 25 μL of MTT solution (5 mg/mL in sterile PBS) was added to each well. Plates were incubated for 3 hours at 37° C., 5% CO2. Next, for THP-1 cells, 100 μl of MTT solubilization solution (40% Dimethylformamide, 2% glacial acetic acid, 16% sodium dodecyl sulfate) was then added to each well and plates were incubated at room temperature in the dark overnight. For HepG2 cells, media was aspirated, 50 μL of DMSO was added and plates were mixed briefly with an orbital plate shaker. Absorbance at 570 nm was measured using a Perkin-Elmer EnVision plate reader.
Absorbance values were converted to percentage of vehicle-treated controls. Data was then analyzed using a non-linear regression (variable slope (four-parameter)) equation in GraphPad Prism 7.0.
Table 2 provides THP-1 cytotoxicity assay CC50 values for example compounds. A indicates CC50>10 μM; B indicates CC50 between 1 and 10 μM (inclusive); C indicates CC50<1 μM. NT, not tested.

[2] = MTT cell viability assay, HepG2 cells; conditions: human, read-out: HepG2 Cytotoxicity CC50
Description: as §1
Absorbance values were converted to percentage of vehicle-treated controls. Data was then analyzed using a non-linear regression (variable slope (four-parameter)) equation in GraphPad Prism 7.0. […]

| SMILES | EC50 (IL-1β) | CC50 at 72 h [1] | CC50 at 72 h [2] |
| --- | --- | --- | --- |
| CC(C)c1cc(C#N)c(F)c(C(C)C)c1NC(=O)NS(=O)(=O)c1ccc2c(c1)C(C)OB2O (stereo not drawn) [Example 56, N-((4-cyano-3-fluoro-2,6-diisopropylphenyl)carbamoyl)-1-hydroxy-3-methyl-1,3-dihydrobenzo[c][1,2]oxaborole-5-sulfonamide] | 1 to 10 µM | > 10 µM | > 10 µM |
| CC1(C)OB(CCCn2ccc(S(=O)(=O)NC(=O)Nc3c4c(cc5c3CCC5)CCC4)n2)OC1(C)C [Example 59, N-((1,2,3,5,6,7-hexahydro-s-indacen-4-yl)carbamoyl)-1-(3-(4,4,5,5-tetramethyl-1,3,2-dioxaborolan-2-yl)propyl)-1H-pyrazole-3-sulfonamide] | < 1 µM | > 10 µM | – |
| O=C(Nc1c2c(cc3c1CCC3)CCC2)NS(=O)(=O)c1ccn(CCCB(O)O)n1 [Example 63, (3-(3-(N-((1,2,3,5,6,7-hexahydro-s-indacen-4-yl)carbamoyl)sulfamoyl)-1H-pyrazol-1-yl)propyl)boronic acid] | < 1 µM | – | > 10 µM |
| CC(CB1OC(C)(C)C(C)(C)O1)Cn1ccc(S(=O)(=O)NC(=O)Nc2c3c(cc4c2CCC4)CCC3)n1 (stereo not drawn) [Example 64, N-((1,2,3,5,6,7-hexahydro-s-indacen-4-yl)carbamoyl)-1-(2-methyl-3-(4,4,5,5-tetramethyl-1,3,2-dioxaborolan-2-yl)propyl)-1H-pyrazole-3-sulfonamide] | < 1 µM | – | > 10 µM |
| CC(CB(O)O)Cn1ccc(S(=O)(=O)NC(=O)Nc2c3c(cc4c2CCC4)CCC3)n1 (stereo not drawn) [Example 65, (3-(3-(N-((1,2,3,5,6,7-hexahydro-s-indacen-4-yl)carbamoyl)sulfamoyl)-1H-pyrazol-1-yl)-2-methylpropyl)boronic acid] | < 1 µM | – | > 10 µM |
| CC1(C)CCc2c1nc1c(c2NC(=O)NS(=O)(=O)c2ccn(CCCB(O)O)n2)CCC1 [Example 67, (3-(3-(N-((3,3-dimethyl-1,2,3,5,6,7-hexahydrodicyclopenta[b,e]pyridin-8-yl)carbamoyl)sulfamoyl)-1H-pyrazol-1-yl)propyl)boronic acid] | < 1 µM | – | > 10 µM |
| COc1cc(-c2ccc3c(c2NC(=O)NS(=O)(=O)c2ccn(CCCB(O)O)n2)CCC3)ccn1 [Example 69, (3-(3-(N-((5-(2-methoxypyridin-4-yl)-2,3-dihydro-1H-inden-4-yl)carbamoyl)sulfamoyl)-1H-pyrazol-1-yl)propyl)boronic acid] | < 1 µM | – | > 10 µM |
| CC1(C)OB(CCCN2CC(S(=O)(=O)NC(=O)Nc3c4c(cc5c3CCC5)CCC4)C2)OC1(C)C [Example 73, N-((1,2,3,5,6,7-hexahydro-s-indacen-4-yl)carbamoyl)-1-(3-(4,4,5,5-tetramethyl-1,3,2-dioxaborolan-2-yl)propyl)azetidine-3-sulfonamide] | < 1 µM | – | > 10 µM |
| CC(C)(O)c1coc(S(=O)(=O)NC(=O)Nc2c3c(cc4c2CCC4)CCC3)c1 [MCC-950, reference compound] | < 1 µM | > 10 µM | – |

Now from value to compound, other results behind:

| EC50 (IL-1β) | SMILES | CC50 at 72 h [1] | CC50 at 72 h [2] |
| --- | --- | --- | --- |
| 1 to 10 µM | COc1cc(-c2ccc3c(c2NC(=O)NS(=O)(=O)c2ccc4c(c2)COB4O)CCC3)ccn1 [Example 51, 1-hydroxy-N-((5-(2-methoxypyridin-4-yl)-2,3-dihydro-1H-inden-4-yl)carbamoyl)-1,3-dihydrobenzo[c][1,2]oxaborole-5-sulfonamide] | > 10 µM | – |
| > 10 µM | CC(C)c1cc(C#N)c(F)c(C(C)C)c1NC(=O)NS(=O)(=O)c1ccc2c(c1)C(O)OB2O (stereo not drawn) [Example 52, N-((4-cyano-3-fluoro-2,6-diisopropylphenyl)carbamoyl)-1,3-dihydroxy-1,3-dihydrobenzo[c][1,2]oxaborole-5-sulfonamide] | > 10 µM | > 10 µM |
| 1 to 10 µM | COc1cc(-c2ccc3c(c2NC(=O)NS(=O)(=O)c2ccc4c(c2)C(O)OB4O)CCC3)ccn1 (stereo not drawn) [Example 53, 1,3-dihydroxy-N-((5-(2-methoxypyridin-4-yl)-2,3-dihydro-1H-inden-4-yl)carbamoyl)-1,3-dihydrobenzo[c][1,2]oxaborole-5-sulfonamide] | > 10 µM | > 10 µM |
| > 10 µM | O=C(Nc1c2c(cc3c1CCC3)CCC2)NS(=O)(=O)c1ccc2c(c1)C(O)OB2O (stereo not drawn) [Example 54, N-((1,2,3,5,6,7-hexahydro-s-indacen-4-yl)carbamoyl)-1,3-dihydroxy-1,3-dihydrobenzo[c][1,2]oxaborole-5-sulfonamide] | > 10 µM | > 10 µM |
| < 1 µM | COc1cc(-c2ccc3c(c2NC(=O)NS(=O)(=O)c2ccc4c(c2)C(C)OB4O)CCC3)ccn1 (stereo not drawn) [Example 55, 1-hydroxy-N-((5-(2-methoxypyridin-4-yl)-2,3-dihydro-1H-inden-4-yl)carbamoyl)-3-methyl-1,3-dihydrobenzo[c][1,2]oxaborole-5-sulfonamide] | > 10 µM | > 10 µM |
| 1 to 10 µM | CC1(C)OB(O)c2ccc(S(=O)(=O)NC(=O)Nc3c4c(cc5c3CCC5)CCC4)cc21 [Example 57, N-((1,2,3,5,6,7-hexahydro-s-indacen-4-yl)carbamoyl)-1-hydroxy-3,3-dimethyl-1,3-dihydrobenzo[c][1,2]oxaborole-5-sulfonamide] | > 10 µM | > 10 µM |
| < 1 µM | CC(CB1OC(C)(C)C(C)(C)O1)c1coc(S(=O)(=O)NC(=O)Nc2c3c(cc4c2CCC4)CCC3)c1 (stereo not drawn) [Example 58, N-((1,2,3,5,6,7-hexahydro-s-indacen-4-yl)carbamoyl)-4-(1-(4,4,5,5-tetramethyl-1,3,2-dioxaborolan-2-yl)propan-2-yl)furan-2-sulfonamide] | – | > 10 µM |
| < 1 µM | CC(C)(Cn1ccc(S(=O)(=O)NC(=O)Nc2c3c(cc4c2CCC4)CCC3)n1)B1OC(C)(C)C(C)(C)O1 [Example 66, N-((1,2,3,5,6,7-hexahydro-s-indacen-4-yl)carbamoyl)-1-(2-methyl-2-(4,4,5,5-tetramethyl-1,3,2-dioxaborolan-2-yl)propyl)-1H-pyrazole-3-sulfonamide] | – | > 10 µM |
| < 1 µM | CC(C)c1cc(C#N)c(F)c(C(C)C)c1NC(=O)NS(=O)(=O)c1ccn(CCCB(O)O)n1 [Example 68, (3-(3-(N-((4-cyano-3-fluoro-2,6-diisopropylphenyl)carbamoyl)sulfamoyl)-1H-pyrazol-1-yl)propyl)boronic acid] | – | > 10 µM |
| 1 to 10 µM | CC1(C)OB(CCCC2(S(=O)(=O)NC(=O)Nc3c4c(cc5c3CCC5)CCC4)CC2)OC1(C)C [Example 70, N-((1,2,3,5,6,7-hexahydro-s-indacen-4-yl)carbamoyl)-1-(3-(4,4,5,5-tetramethyl-1,3,2-dioxaborolan-2-yl)propyl)cyclopropane-1-sulfonamide] | – | > 10 µM |
| 1 to 10 µM | O=C(Nc1c2c(cc3c1CCC3)CCC2)NS(=O)(=O)C1(CCCB(O)O)CC1 [Example 71, (3-(1-(N-((1,2,3,5,6,7-hexahydro-s-indacen-4-yl)carbamoyl)sulfamoyl)cyclopropyl)propyl)boronic acid] | – | > 10 µM |
| 1 to 10 µM | O=C(Nc1c2c(cc3c1CCC3)CCC2)NS(=O)(=O)C1CCN(CCCB(O)O)CC1 [Example 72, (3-(4-(N-((1,2,3,5,6,7-hexahydro-s-indacen-4-yl)carbamoyl)sulfamoyl)piperidin-1-yl)propyl)boronic acid] | – | > 10 µM |
